# Test results reported in paper PMC5453931, “Cathelicidin-trypsin inhibitor loop conjugate represents a promising antibiotic candidate with protease stability” (Scientific Reports, 2017).
# Where a SMILES comes first, the peptide text is derived from it. Bridges are numbered along the chain shown (N, C = ends).
# Assays:
# P. Aeruginosa 08021015 = experiment: microbe, parasite or virus in culture; format: cell-based; details: 08021015, 18 h
# Experimental: (§1) A two-fold broth microdilution method described in our previous paper was used to determine the antimicrobial activities of parental and hybrid peptides. More than 30 strains including Gram-negative bacteria, Gram-positive bacteria and fungi were used in the current assay, in which the standard strains were stored in our lab and the clinical strains were collected from local hospitals. Briefly, bacteria were incubated in Mueller-Hinton broth (MH broth) at 37 °C to exponential phase and diluted to 10^6 CFU/mL. A serial dilution of peptide sample were prepared in 96-well microtiter plates (50 μL) and mixed with equal volume of microbial inoculums (50 μL). The plate was slowly shaken in the microbial incubator, and measured at A595 after incubation at 37 °C for 18 h. The minimal concentrations at which no microbial growth occurred were recorded as MIC (minimal inhibitory concentration) values. The traditional antibiotic ampicillin was used as positive control. The results are shown in an average of the MICs obtained from three independent experiments.
# Vibrio brasiiensis = experiment: microbe, parasite or virus in culture; format: cell-based; details: 18 h
# Experimental: as §1
# [1] = test system: Nocardia asteroides 08052412; experiment: microbe, parasite or virus in culture; format: cell-based; details: 18 h
# Experimental: as §1
# [2] = test system: Candida albicans 08030102; experiment: microbe, parasite or virus in culture; format: cell-based; details: 08030102, 18 h
# Experimental: as §1
# [3] = test system: Enterococcus faecium 08052315; experiment: microbe, parasite or virus in culture; format: cell-based; details: 08052315, 18 h
# Experimental: as §1
# [4] = test system: Escherichia coli ATCC25922; experiment: microbe, parasite or virus in culture; format: cell-based; details: ATCC25922, 18 h
# Experimental: as §1
# Aeromonas veronii = experiment: microbe, parasite or virus in culture; format: cell-based; details: Aquatic pathogenic bacteria; two-fold broth microdilution, 37 °C, 18 h; mean of three independent experiments in duplicates
# Experimental: as §1
# S. Aureus 08032706 = experiment: microbe, parasite or virus in culture; format: cell-based; details: Gram-positive; two-fold broth microdilution, MH broth, 37 °C, 18 h; mean of three independent experiments in duplicates
# Experimental: as §1
# Vibrio cholerae = experiment: microbe, parasite or virus in culture; format: cell-based; details: 18 h
# Experimental: as §1
# S. Aureus 08032615 = experiment: microbe, parasite or virus in culture; format: cell-based; details: 08032615, 18 h
# Experimental: as §1
# S. Aureus 08032810 = experiment: microbe, parasite or virus in culture; format: cell-based; details: Gram-positive; two-fold broth microdilution, MH broth, 37 °C, 18 h; mean of three independent experiments in duplicates
# Experimental: as §1
# K. Pneumoniae 08040202 = experiment: microbe, parasite or virus in culture; format: cell-based; details: Gram-negative; two-fold broth microdilution, MH broth, 37 °C, 18 h; mean of three independent experiments in duplicates
# Experimental: as §1
# Aeromonas sobria = experiment: microbe, parasite or virus in culture; format: cell-based; details: Aquatic pathogenic bacteria; two-fold broth microdilution, 37 °C, 18 h; mean of three independent experiments in duplicates
# Experimental: as §1
# K. Pneumoniae 08031012 = experiment: microbe, parasite or virus in culture; format: cell-based; details: Gram-negative; two-fold broth microdilution, MH broth, 37 °C, 18 h; mean of three independent experiments in duplicates
# Experimental: as §1
# Edwardsiella tarda = experiment: microbe, parasite or virus in culture; format: cell-based; details: 18 h
# Experimental: as §1
# Candida glabrata 08A802 = experiment: microbe, parasite or virus in culture; format: cell-based; details: 08A802, 18 h
# Experimental: as §1
# Vibrio harveyi = experiment: microbe, parasite or virus in culture; format: cell-based; details: 18 h
# Experimental: as §1
# S. Maltophilia 090223 = experiment: microbe, parasite or virus in culture; format: cell-based; details: 090223, 18 h
# Experimental: as §1
# Proteus mirabilis 1376 = experiment: microbe, parasite or virus in culture; format: cell-based; details: 1376, 18 h
# Experimental: as §1
# E. Coli 08032823 = experiment: microbe, parasite or virus in culture; format: cell-based; details: 08032823, 18 h
# Experimental: as §1
# [5] = test system: Bacillus subtilis 08042313; experiment: microbe, parasite or virus in culture; format: cell-based; details: 08042313, 18 h
# Experimental: as §1
# 08030209 = experiment: microbe, parasite or virus in culture; format: cell-based, Arcyria cinerea; details: Fungi; two-fold broth microdilution, 37 °C, 18 h; mean of three independent experiments in duplicates
# Experimental: as §1
# E. coli 08040726 [6] = experiment: MIC, two-fold broth microdilution (second listing of the strain number); format: cell-based; details: Gram-negative, MH broth, 37 °C, 18 h, mean of three independent experiments in duplicates
# Experimental: as §1
# E. coli 08040726 [7] = format: cell-based; details: 08040726, 18 h
# Experimental: as §1
# trypsin = experiment: Trypsin inhibition assay (NBLAN hydrolysis, Dixon method); format: biochemical; details: 50 mM Tris–HCl pH 7.8, trypsin 0.1 mg/mL, 5 min pre-incubation at 37 °C, substrate NBLAN 48, 96, 192 μg/mL, 405 nm
# Experimental: The inhibition effect on the hydrolysis of synthetic chromogenic substrate by trypsin was assayed in 50 mM Tris–HCl, pH 7.8 buffer at room temperature. The trypsin of final concentration of 0.1 mg/mL and different amounts of the hybrid peptide (final concentrations ranging from 0 to 0.16 μg/mL) were pre-incubated for 5 min at 37 °C. N-α-Benzoyl-DL-arginine p-nitroanilide hydrochloride (NBLAN) was used as a substrate for trypsin. The reaction was initiated by the addition of NBLAN with a final concentration of 48, 96 and 192 μg/mL, respectively. The formation of yellow product, p-nitroaniline was monitored continuously at 405 nm[61]. The inhibition constant Ki of the hybrid peptides were determined according to the method of Dixon (1953)[62].
# Vibrio Parahaemolyticus = experiment: MIC, two-fold broth microdilution; format: cell-based; details: Aquatic pathogenic bacteria; two-fold broth microdilution, 37 °C, 18 h; mean of three independent experiments in duplicates
# Summary of the method: (§2)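 Cultures are brought to exponential phase at 37 °C in Mueller-Hinton medium and adjusted to 10^6 CFU/mL. This suspension is added in equal volume to two-fold peptide series and incubated, slowly shaken, for 18 h. Absorbance at 595 nm gives the no-growth MIC, reported as the mean of triplicate experiments.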
# E. Coli 08032813 = experiment: MIC, two-fold broth microdilution; format: cell-based; details: Gram-negative; two-fold broth microdilution, MH broth, 37 °C, 18 h; mean of three independent experiments in duplicates
# Summary of the method: as §2
# [8] = test system: Staphylococcus epidermidis; experiment: MIC, two-fold broth microdilution; format: cell-based; details: Gram-positive; two-fold broth microdilution, MH broth, 37 °C, 18 h; mean of three independent experiments in duplicates
# Summary of the method: as §2
smiles,measurement,setting,value
CC[C@H](C)[C@@H]1NC(=O)[C@H](CO)NC(=O)[C@H](CCCCN)NC(=O)[C@H]([C@@H](C)O)NC(=O)[C@H](Cc2c[nH]c3ccccc23)NC(=O)[C@@H](NC(=O)[C@H](Cc2ccccc2)NC(=O)[C@H](CCCCN)NC(=O)[C@H](CCCCN)NC(=O)[C@@H](NC(=O)[C@H](C)NC(=O)[C@H](CCCNC(=N)N)NC(=O)[C@H](CCCNC(=N)N)NC(=O)[C@@H](NC(=O)[C@H](CO)NC(=O)[C@H](CCCCN)NC(=O)[C@H](CC(C)C)NC(=O)[C@H](CC(C)C)NC(=O)[C@H](CCCNC(=N)N)NC(=O)[C@H](CCCCN)NC(=O)[C@H](Cc2ccccc2)NC(=O)[C@H](Cc2ccccc2)NC(=O)[C@@H](N)CCCCN)C(C)C)C(C)C)CSSC[C@@H](C(=O)O)NC(=O)[C@@H]2CCCN2C(=O)[C@H](CCCCN)NC(=O)[C@@H]2CCCN2C(=O)[C@@H]2CCCN2C1=O [H3TI] (H-KFFKRLLKSVRRAVKKFCWTKSIPPKPC-OH; disulfide 18-28),MIC P. Aeruginosa 08021015,P. Aeruginosa 08021015,37.5 µg/mL
same,MIC Vibrio brasiiensis,Vibrio brasiiensis,18.75 µg/mL
same,MIC Nocardia asteroides 08052412,[1],18.75 µg/mL
same,MIC Candida albicans 08030102,[2],4.69 µg/mL
same,MIC Enterococcus faecium 08052315,[3],9.38 µg/mL
same,MIC Escherichia coli ATCC25922,[4],37.5 µg/mL
same,MIC Aeromonas veronii,Aeromonas veronii,— (no detectable activity in MIC assay in dose of 200 µg/mL or in trypsin inhibition assay at concentration of 160 μg/mL)
same,MIC S. Aureus 08032706,S. Aureus 08032706,— (no detectable activity in MIC assay in dose of 200 µg/mL or in trypsin inhibition assay at concentration of 160 μg/mL)
same,MIC Vibrio cholerae,Vibrio cholerae,75 µg/mL
same,MIC S. Aureus 08032615,S. Aureus 08032615,37.5 µg/mL
same,MIC S. Aureus 08032810,S. Aureus 08032810,— (no detectable activity in MIC assay in dose of 200 µg/mL or in trypsin inhibition assay at concentration of 160 μg/mL)
same,MIC K. Pneumoniae 08040202,K. Pneumoniae 08040202,— (no detectable activity in MIC assay in dose of 200 µg/mL or in trypsin inhibition assay at concentration of 160 μg/mL)
same,MIC Aeromonas sobria,Aeromonas sobria,— (no detectable activity in MIC assay in dose of 200 µg/mL or in trypsin inhibition assay at concentration of 160 μg/mL)
same,MIC K. Pneumoniae 08031012,K. Pneumoniae 08031012,— (no detectable activity in MIC assay in dose of 200 µg/mL or in trypsin inhibition assay at concentration of 160 μg/mL)
same,MIC Edwardsiella tarda,Edwardsiella tarda,37.5 µg/mL
same,MIC Candida glabrata 08A802,Candida glabrata 08A802,4.69 µg/mL
same,MIC Vibrio harveyi,Vibrio harveyi,37.5 µg/mL
same,MIC S. Maltophilia 090223,S. Maltophilia 090223,18.75 µg/mL
same,MIC Proteus mirabilis 1376,Proteus mirabilis 1376,37.5 µg/mL
same,MIC E. Coli 08032823,E. Coli 08032823,37.5 µg/mL
same,MIC Bacillus subtilis 08042313,[5],9.38 µg/mL
same,MIC Arcyria cinerea 08030209,08030209,— (no detectable activity in MIC assay in dose of 200 µg/mL or in trypsin inhibition assay at concentration of 160 μg/mL)
same,MIC E. Coli 08040726 (second line with this strain number),E. coli 08040726 [6],— (no detectable activity in MIC assay in dose of 200 µg/mL or in trypsin inhibition assay at concentration of 160 μg/mL)
same,MIC E. coli 08040726,E. coli 08040726 [7],9.38 µg/mL
same,Ki,trypsin,5.5 µM
same,MIC Vibrio Parahaemolyticus,Vibrio Parahaemolyticus,4.69 µg/mL
same,MIC E. Coli 08032813,E. Coli 08032813,— (no detectable activity in MIC assay in dose of 200 µg/mL or in trypsin inhibition assay at concentration of 160 μg/mL)
same,MIC Staphylococcus epidermidis,[8],— (no detectable activity in MIC assay in dose of 200 µg/mL or in trypsin inhibition assay at concentration of 160 μg/mL)
